In paper PMC4706618, “Comparison of bactericidal and cytotoxic activities of trichogin analogs” (Data in Brief, 2015):
In brackets after ≈: the same amount, converted by molar mass. Where two headings read alike, the source gives them in different places. Non-standard residues stand in square brackets, D forms with d. Residues, ends and D or L forms follow the SMILES beside them. *: point of attachment. Leu(ol) = CC(C)C[C@H](N)CO; Octanoyl = CCCCCCCC(=O)*; Aib = CC(C)(N)C(=O)O

Assays:
[1] = test system: human cells (lymphocytes, PMNs, monocytes, HL60, HeLa, A431, A549, CCD34Lu); test: Cytotoxicity on human cells, MTS reduction and LDH release; assay type: cell-based; conditions: 24 h, MTS/LDH EC50, all tested cells; in words
Protocol: To monitor the possible differential cytocidal effect of trichogin and its analogs on human cells (healthy and cancer cells, non-leukocytes and leukocytes), we incubated the peptides with (i) primary human leukocytes (lymphocytes, PMNs and monocytes), freshly isolated from blood of healthy donors (ii) the monocytes-like HL60 cell line from human myeloid leukemia, and (iii) three tumor-derived non-leukocyte cells lines: HeLa ([…]), A431 (human epidermoid carcinoma) and A549 (human lung carcinoma) and the in vitro stabilized line CCD34Lu (from human normal lung).
HeLa, A431 and CCD34-Lu cells were maintained in DMEM medium (Gibco), A549 in F12 medium (Gibco) and HL60 in RPMI medium (Gibco), supplemented with 10% FCS (Euroclone) and antibiotics (penicillin and streptomycin, 100 U/ml, Invitrogen) at 37 °C in a humidified atmosphere containing 5% (v/v) CO2; cells were split every 2–3 days. Human monocytes, polymorphonuclear leukocytes (PMNs) and lymphocytes were purified from buffy coats of healthy donors, kindly provided by the Centro Immunotrasfusionale, Hospital of Padova. Briefly, for monocyte purification, peripheral blood mononuclear cells (PBMC) were isolated from buffy coats of healthy donors by density gradient centrifugation on Ficoll-Paque Plus (GE Health care), which density is optimized for the isolation of mononuclear cells. Separate monocyte and T-cell fractions were obtained from PBMCs by Percoll density gradient centrifugation (GE Health care); residual lymphocytes were removed by incubation in 2% fetal calf serum (FCS) RPMI at 37 °C and subsequently washed to eliminate non adherent cells. Unless otherwise specified, cells were kept at 37 °C in a humidified atmosphere containing 5% (v/v) CO2 in RPMI-1640 supplemented with 10% FCS. For PMNs purification, the pellet of cells obtained after the centrifugation on Ficoll gradient was subjected to dextran erythrocytes precipitation; residual erythrocytes were removed by hypotonic lysis in 155 mM NH4Cl, 10 mM KHCO3, and […] Na2EDTA at pH 7.4 and cells were cultured in RPMI medium, supplemented with 10% FCS. For lymphocytes preparation, buffy coats were incubated with 50 μl/ml of Rosette Sep® Human T Cell Enrichment Cocktail (StemCell Technologies). Blood was then centrifuged over a Ficoll gradient and cells were cultured in RPMI medium, supplemented with 10% FCS.
(§1) Twenty-four hours before the experiment, A431, HeLa, A549 and CC34-Lu cells were detached by means of trypsin treatment (Gibco), counted and seeded onto a 96 wells/plate (8×10^3 cells/well, Falcon). After purification, monocytes were seeded onto a 96 wells/plate (2×10^6/well) and left to adhere to the plastic; then cells were immediately treated with stimuli. PMNs and lymphocytes (2×10^6 cells/well) and HL60 cells (40×10^3) were seeded onto cell plates and subsequently treated. Different peptides were diluted in culture medium (from 20 μM to 1 μM) and added to the cells. As a […] control cells were treated with medium without stimuli. Twenty-four hours after treatment, the cell supernatant was collected for subsequent assay (LDH assay) and cells were tested using a CellTiter 96® AQueous One Solution Reagent (Promega). Plates were read with an ELISA reader (Amersham Biosciences) at 492 nm. Data were expressed as % of absorbance value compared to untreated cells (assumed as 100% viable). Alternatively, the EC50 (the concentration of drug where 50% of cells died) was calculated for each peptide and each kind of tested cell.
(§2) 50 μl of the cell supernatant was tested with a CytoTox 96® Non-Radioactive Cytotoxicity Assay kit (Promega). EC50 (the concentration of drug that induced the lysis of 50% of the total cell number) was calculated for each peptide and each kind of tested cell.

[2] = test system: S. aureus, ATCC BAA-44 (methicillin-resistant strain); assay type: cell-based, Staphylococcus aureus; conditions: after 24 h at 37 °C, broth microdilution in LB, 5×10^5 CFU/ml; ±SE, N≥4; peptide dose range 0–64 µM
Protocol: (§3) E. coli ATCC 25922, the methicillin-resistant strain of S. aureus, ATCC BAA-44, P. aeruginosa ATCC 25668 and S. epidermidis ATCC 700565 was a kind gift of Prof. Elena Reddi (Dept. of Biology, University of Padova, Italy). Cultures were maintained in Luria Bertani (LB) agar. MICs (Minimal inhibitory concentrations) of the peptides were determined using the broth microdilution method. Two-fold serial dilutions of each peptide, from 1 to 64 μM, were prepared in LB and 50 μl per well were arranged in sterile 96-well plates (Falcon). Then, an aliquot of bacterial cell suspension was added to each well, at a final concentration of 5×10^5 CFU/ml.

[3] = test system: S. epidermidis ATCC 700565; assay type: cell-based, Staphylococcus epidermidis; conditions: after 24 h at 37 °C, broth microdilution in LB, 5×10^5 CFU/ml; ±SE, N≥4; peptide dose range 0–64 µM
Protocol: as §3

[4] = test system: HeLa cells; test: Propidium iodide / Annexin V assay (FACS); assay type: cell-based, human; conditions: 18 h treatment, up to 20 μM, in words
Protocol: HeLa cells were seeded on 24-wells plastic trays (Falcon) the day before the experiment, while HL60 were used directly. Cells were treated for 18 h with different trichogin analogs (up to 20 μM); then they were washed with PBS, detached with trypsin (in the case of HeLa cells), centrifuged at 200g for 5 min, suspended in 50 μl of incubation buffer and incubated for 15 min at 37 °C with 2 μl of Annexin-V-Fluos (Roche). Cells were finally diluted in 250 μl of the incubation buffer and 15 μl of Propidium Iodide (Sigma) were added to each sample just before the acquisition with FACSCanto® (Beckton Dickinson). Percentage of healthy (Annexin V^−/PI^−), apoptotic (Annexin V^+/PI^−), oncotic (Annexin V^−/PI^+) and late apoptotic/abortive oncotic (Annexin V^+/PI^+) cells of the total (10^6 cells) was calculated using FACSDiva Software.

[5] = test system: E. coli ATCC 25922; assay type: cell-based, Escherichia coli; conditions: after 24 h at 37 °C, broth microdilution in LB, 5×10^5 CFU/ml; ±SE, N≥4; peptide dose range 0–64 µM
Protocol: as §3

[6] = test system: P. aeruginosa ATCC 25668; assay type: cell-based, Pseudomonas aeruginosa; conditions: after 24 h at 37 °C, broth microdilution in LB, 5×10^5 CFU/ml; ±SE, N≥4; peptide dose range 0–64 µM
Protocol: as §3

[7] = test system: P. aeruginosa ATCC 25668; conditions: after 24 h; ±SE; § data for comparison; ref [6]; cited from earlier work
Protocol: Table 2 MICs (μM±SE; N≥4; peptides dose range: 0–64 µM) after 24 h against two Gram^+ and two Gram^− bacterial strains (§ indicates data from for comparison). | column: P. aeruginosa

[8] = test system: E. coli ATCC 25922; conditions: after 24 h; ±SE; § data for comparison; ref [6]; cited from earlier work
Protocol: Table 2 MICs (μM±SE; N≥4; peptides dose range: 0–64 µM) after 24 h against two Gram^+ and two Gram^− bacterial strains (§ indicates data from for comparison). | column: E. coli

[9] = test system: S. epidermidis ATCC 700565; conditions: after 24 h; ±SE; § data for comparison; ref [6]; cited from earlier work
Protocol: Table 2 MICs (μM±SE; N≥4; peptides dose range: 0–64 µM) after 24 h against two Gram^+ and two Gram^− bacterial strains (§ indicates data from for comparison). | column: S. epidermis

[10] = test system: Gram^− and Gram^+ bacteria; conditions: both Gram^− and Gram^+ bacteria; ref Tavano et al., 2015 [6]; cited from earlier work
Source text: (§4) Peptaibiotics are a group of membrane active peptides of fungal origin. They typically contain α-aminoisobutyric acid (Aib; 1-letter code, U) and other non-coded residues (Toniolo and Brückner, 2009; Neumann et al., 2015; Benedett et al., 1982), [2], [3] stabilizing their helical structure. Peptaibols are peptaibiotics carrying a 1, 2-aminoalcohol at the C-terminus. When a fatty acid chain (of 8–10 carbon atoms) is present at their N-terminus, they are called lipopeptaibols (Toniolo et al., 2001; Degenkolb et al., 2003), [5]. We found (Tavano et al., 2015) that the lipo ...

[11] = test system: human cells (lymphocytes, PMNs, monocytes, HL60, HeLa, A431, A549, CCD34Lu); conditions: tumor and healthy human cells; ref Tavano et al., 2015 [6]; read-out: EC50 for killing tumor and healthy human cells; cited from earlier work
Source text: as §4

[12] = test system: S. aureus, ATCC BAA-44 (methicillin-resistant strain); conditions: after 24 h; ±SE; § data for comparison; ref [6]; cited from earlier work
Protocol: Table 2 MICs (μM±SE; N≥4; peptides dose range: 0–64 µM) after 24 h against two Gram^+ and two Gram^− bacterial strains (§ indicates data from for comparison). | column: S. aureus

[13] = test system: Erythrocytes; test: Hemolytic activity (hemoglobin release); assay type: cell-based; conditions: erythrocytes treated 24 h, hemoglobin release read spectrophotometrically; in words
Protocol: Fig. 7 Hemolytic activity of trichogin and its analogs. Erythrocytes were treated for 24 h with different concentration of peptides, centrifuged and hemoglobin release was measured spectrophotometrically. Hemolysis is expressed as percentage relative to positive control (erythrocytes treated with distilled water). § Indicates data from for comparison.

[14] = test system: HeLa cells; test: Cytotoxicity on HeLa cells, MTS/LDH; assay type: cell-based, human; conditions: 24 h, in words
Protocol: as §1, §2

[15] = test system: Gram^− and Gram^+ bacteria; test: Antibacterial activity, all strains taken together; assay type: cell-based; conditions: additional U at position 6 or U1 replaced with L; in words
Protocol: as §3

| Compound | cytotoxicity compared with trichogin or the corresponding analog [1] | MIC S. aureus [2] [µM] | MIC S. epidermis [3] [µM] | type and extent of HeLa cell death, PI/Annexin V labeling [4] | MIC E. coli [5] [µM] | MIC P. aeruginosa [6] [µM] | MIC P. aeruginosa [7] [µM] | MIC E. coli [8] [µM] | MIC S. epidermis [9] [µM] | antibacterial effects (none up to the stated concentration) [10] [µM] | EC50 [11] [µM] | MIC S. aureus [12] [µM] | hemolytic effect [13] | toxicity to HeLa cells compared with trichogin [14] | antibacterial activity compared with the K-containing analogs [15] |
| --- | --- | --- | --- | --- | --- | --- | --- | --- | --- | --- | --- | --- | --- | --- | --- |
| CCCCCCCC(=O)N[C@@H](CC(C)C)C(=O)NCC(=O)N[C@@H](CC(C)C)C(=O)NC(C)(C)C(=O)NCC(=O)NCC(=O)N[C@@H](CC(C)C)C(=O)NC(C)(C)C(=O)NCC(=O)N[C@H](C(=O)N[C@H](CO)CC(C)C)[C@@H](C)CC [L1] (Octanoyl-LGL[Aib]GGL[Aib]GI[Leu(ol)]) | weakly affected | 32 ± 0 (≈ 35 µg/mL) | >64 | as effective as trichogin in killing HeLa cells | >64 | >64 |  |  |  |  |  |  |  |  |  |
| Oc-UGLUGGLUGILol [GA IV, trichogin GA IV, lipopeptaibol trichogin, Oc-UGLUGGLUGILol] |  |  |  |  |  |  | >64 | >64 | >64 | > 64 | 4 to 5 | >64 | weakly hemolytic |  |  |
| CCCCCCCC(=O)NC(C)(C)C(=O)NCC(=O)N[C@@H](CC(C)C)C(=O)NC(C)(C)C(=O)N[C@@H](CCCCN)C(=O)NC(C)(C)C(=O)N[C@@H](CC(C)C)C(=O)NC(C)(C)C(=O)NCC(=O)N[C@H](C(=O)N[C@H](CO)CC(C)C)[C@@H](C)CC [K5U6] (Octanoyl-[Aib]GL[Aib]K[Aib]L[Aib]GI[Leu(ol)]) | increased cytotoxicity | 3.8 ± 2.4 (≈ 4.43 µg/mL) | 2.4 ± 0.9 (≈ 2.8 µg/mL) | predominantly a late apoptotic phenotype but also significant necrosis | >64 | >64 |  |  |  |  |  |  |  | significantly more effective in killing HeLa cells | failed to increase the antibacterial activity |
